Assay results taken from ChEMBL document CHEMBL5113529, “Design, Synthesis, and Biological Evaluation of Dual-Target COX-2/CYP51 Inhibitors for the Treatment of Fungal Infectious Diseases” (J Med Chem, 2022).
Calls of active or inactive are those of the source. The rule behind the calls is not given here.

What was measured:
Candida albicans [1] = assay: Induction of morphological changes in Candida albicans ATCC SC5314 assessed as edema cavitation measured for 48 to 72 hrs by transmission electron microscopic analysis; type: functional, organism-based; details: time 48-72 hrs
Candida albicans [2] = assay: Antifungal actvity against Candida albicans ATCC SC5314 infected in mouse assessed as reduction in fungal infection at 10 ug per 20 g, ip administered on day 2, 4, 6, 8, 10 and 12 and measured on day 14 in presence of naproxen; type: functional, organism-based; details: dose 10.0 µg, time 14.0 day
Mus musculus [3] = species: Mus musculus; assay: Immunostimulatory activity in mouse infected with Candida albicans ATCC SC5314 assessed as increase in CD3+ expression level in spleen in presence of naproxen by immunohistochemical analysis; type: functional, organism-based
Candida albicans [4] = assay: Antifungal activity against fluconazole- resistant Candida albicans CaR assessed as fungal growth inhibition measured after 72 hrs in presence of naproxen by double dilution method; type: functional
[5] = Toxicity in mouse infected with Candida albicans assessed as BUN level in plasma at 10 ug per 20 g, ip administered on day 2, 4, 6, 8, 10 and 12 and measured on day 14 in presence of naproxen (reference value: 8.2 +/- 0.5 mmol/L); type: organism-based; details: in vivo, 336 h, dose 10 µg, time 14 day
Pichia kudriavzevii = assay: Antifungal activity against Candida krusei ATCC 6258 assessed as fungal growth inhibition measured after 72 hrs in presence of naproxen by double dilution method; type: functional
Candida albicans [6] = assay: Antifungal activity against fluconazole- resistant Candida albicans 904 assessed as fungal growth inhibition measured after 72 hrs in presence of naproxen by double dilution method; type: functional
Mus musculus [7] = species: Mus musculus; assay: Immunostimulatory activity in mouse infected with Candida albicans ATCC SC5314 assessed as increase in CD8+ expression level in spleen in presence of naproxen by immunohistochemical analysis; type: functional, organism-based
Aspergillus fumigatus = assay: Antifungal activity against Aspergillus fumigatus KM8001 assessed as fungal growth inhibition measured after 72 hrs in presence of naproxen by double dilution method; type: functional
Mus musculus [8] = species: Mus musculus; assay: Antiinflammatory activity in mouse infected with Candida albicans ATCC SC5314 assessed as reduction in MMP-9 expression in spleen in presence of naproxen by hematoxylin staining based inverted microscopic analysis; type: functional
Mus musculus [9] = species: Mus musculus; assay: Immunostimulatory activity in mouse infected with Candida albicans ATCC SC5314 assessed as reduction in PD-L1 expression in spleen in presence of naproxen by western blot analysis relative to control; type: functional; set-up: scale not given: the % may be the effect or the level left
[10] = Toxicity in mouse infected with Candida albicans assessed as ALT level in plasma at 10 ug per 20 g, ip administered on day 2, 4, 6, 8, 10 and 12 and measured on day 14 in presence of naproxen (reference value: 43.6 +/- 4.4 IU/L); type: organism-based; details: in vivo, 336 h, dose 10 µg, time 14 day
Candida albicans [11] = assay: Antifungal actvity against Candida albicans ATCC SC5314 infected in mouse assessed as reduction in infection at 10 ug per 20 g, ip administered on day 2, 4, 6, 8, 10 and 12 and measured on day 14 in presence of naproxen; type: functional, organism-based; details: time 14.0 day

Q: For COc1ccc2cc([C@H](C)C(=O)NC(Cn3cncn3)C(=O)c3ccccc3)ccc2c1 (stereo partly drawn), which Activity (Candida albicans [1]) is on record?
A: Active

Q: For OC(Cn1cncn1)(Cn1cncn1)c1ccc(F)cc1F [FLUCONAZOLE], which Activity (Candida albicans [2]) is on record?
A: Active

Q: And the Activity (Mus musculus [3])?
A: Active

Q: And the MIC50 (Candida albicans [4])?
A: 2 µg/mL

Q: What about the Activity [5] of the same compound?
A: 9.5 IU/L

Q: And the MIC50 (Pichia kudriavzevii)?
A: 1 µg/mL

Q: And the MIC50 (Candida albicans [6])?
A: 2 µg/mL

Q: What about the Activity (Mus musculus [7]) of the same compound?
A: Active

Q: What about the MIC50 (Aspergillus fumigatus) of the same compound?
A: 4 µg/mL

Q: What about the Activity (Mus musculus [8]) of the same compound?
A: 26.05 a.u.

Q: And the Activity (Mus musculus [9])?
A: 14.27%

Q: What about the Activity [10] of the same compound?
A: 42.6 IU/L

Q: What about the Activity (Candida albicans [11]) of the same compound?
A: Active
